Test results as given in PubChem BioAssay (NCI).
Where “and” joins values, the source holds several entries; their conditions need not be identical. Identical values can stand only once.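 Following 48 hours of exposure in 96-well plates, responses at five concentrations were used to interpolate endpoints linearly. The concentration for 50% growth inhibition is given as GI50. TGI: concentration producing complete growth inhibition.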

Key:
Test in all cases: NCI tumour cell line growth inhibition, 48 h
[1] = test system: HOP-92 NSCLC
[2] = test system: SW-620 colon
[3] = test system: EKVX NSCLC
[4] = test system: IGROV1 ovarian
[5] = test system: OVCAR-8 ovarian
[6] = test system: LOX IMVI melanoma
[7] = test system: SF-268 CNS
[8] = test system: RPMI-8226 leukemia
[9] = test system: RXF 393 renal
[10] = test system: OVCAR-3 ovarian

Structure (SMILES)	GI50 [1]	TGI [1]	GI50 [2] [µM]	TGI [2]	GI50 [3]	TGI [3]	GI50 [4]	TGI [4]	GI50 [5]	TGI [5]	GI50 [6] [µM]	TGI [6]	GI50 [7] [µM]	TGI [7]	GI50 [8]	GI50 [9] [µM]	TGI [9]	GI50 [10]	TGI [10]	TGI [8]
Oc1ccc(Cl)cc1Sc1cc(Cl)ccc1O	0.421 µM	9.71 µM and 3.43 µM	4.02	39.6 µM and 13.8 µM	2.58 µM	33 µM and 8.19 µM	3.52 µM	32.5 µM and 9.5 µM	3.36 µM	42.7 µM and 10.8 µM	2.63	24 µM and 8.42 µM	3.51	31.9 µM and 13.4 µM	1.97 µM	4.88	31.1 µM and 17.1 µM	2.79 µM	15.4 µM and 6.8 µM	
CCCCSc1nc(N)c2cn[nH]c2n1		2.39 µM	29.1	> 70 µM	15.6 µM	57.3 µM	29.5 µM	> 100 µM	23.2 µM	> 60.4 µM	29.9	> 88.6 µM	22.2	> 59.4 µM	17.1 µM	9.25	> 44 µM	17.1 µM	35.1 µM	37.9 µM
C[C@]12Cc3conc3C(O)=C1CC[C@@H]1C2CC[C@@]2(C)C1CC[C@]2(C)O (some centres undefined)		61.5 µM		> 100 µM		87.6 µM		62.2 µM		61.3 µM		22.7 µM		> 100 µM			44 µM		80.7 µM	22.7 µM
CCCS(=O)c1nc(COC(=O)NC)c(COC(=O)NC)n1C (centres undefined)		> 100 µM		> 100 µM		> 100 µM		> 100 µM		> 100 µM		> 100 µM		> 100 µM			> 100 µM		> 100 µM	> 100 µM
C[C@@H](CS[As](C)C)C(=O)N1CCC[C@H]1C(=O)O	0.0514 µM	0.542 µM	0.25	2.05 µM	0.723 µM	8.53 µM	0.439 µM	3.21 µM	0.299 µM		0.172	0.673 µM	0.788	6.45 µM	0.0262 µM	0.194	2.81 µM	0.0736 µM	0.223 µM	0.0831 µM
CN(C)CC1C(=O)O[C@H]2[C@H]1CC/C(COC(=O)NCc1ccc(Cn3c(=O)sn(CCCI)c3=O)cc1)=C\CC[C@@]1(C)O[C@@H]21 (some centres undefined)	0.786 µM	2.56 µM	0.998	2.09 µM	3.19 µM	10.3 µM	0.922 µM	1.97 µM	1.16 µM	2.72 µM	0.913	1.69 µM	4.84	11.4 µM	1.75 µM	0.889	1.71 µM	0.775 µM	1.45 µM	6.88 µM
CCN(CC)S(=O)(=O)c1cccc(-c2ccc3c(NC(=O)C4CC4)n[nH]c3c2)c1	2.58 µM	> 6.25 µM	2.27	> 6.25 µM	2.19 µM	> 6.25 µM	3.79 µM	> 6.25 µM	2.69 µM	> 6.25 µM	2.44	> 6.25 µM	2.34	> 6.25 µM	1.6 µM	1.94	5.17 µM	1.9 µM	> 6.25 µM	> 6.25 µM
Cc1cc2c3c([n+](C)c4ccc(F)cc4c3c1)-c1cc(F)ccc1N2C	16.4 µM	46 µM	13.5	> 100 µM	62.4 µM	> 100 µM	19.9 µM	> 100 µM	15.2 µM	> 100 µM	20.7	68.6 µM	2.42	14.8 µM	5.13 µM	> 100	> 100 µM	12 µM	61.8 µM	36.4 µM
Cc1ccc(N=Nc2c(O)ccc3n[nH]nc23)cc1	15.4 µM	83.8 µM	12.3	> 100 µM	11.6 µM	50 µM	12.2 µM	50.6 µM	16.5 µM	75 µM	12.7	> 100 µM	14.9	77.5 µM	5.52 µM	13.2	82.1 µM	4.31 µM	22.2 µM	55.4 µM
C=C1C(=O)O[C@@H]2CC(CO)=C([C@@H](C)CCCO)[C@@H](OC(=O)/C(C)=C\C)[C@H]12		56.7 µM		44.5 µM		48.2 µM		35 µM		> 76.8 µM		24.3 µM		50.2 µM			37.7 µM		26.2 µM	31 µM
O=C(NNc1ccccc1)c1ccc(Cl)c(Cl)c1		> 100 µM		> 100 µM		99.4 µM		> 60.7 µM		> 100 µM		> 100 µM		> 100 µM			> 84 µM		> 94 µM	> 54.4 µM
[Cl][Hg][c]1ccc2ccccc2c1	1.92 µM	3.46 µM	1.77	3.62 µM	3.07 µM	7.96 µM	1.31 µM	3.02 µM	2.32 µM	6.17 µM	0.284	1.97 µM	2.22	5.91 µM	2.5 µM	1.62	3.04 µM	1.79 µM	3.63 µM	10.1 µM
CC(C)c1[nH]nc2c(NCc3ccc(-c4ccccn4)cc3)nc(SCCN)nc12	0.0169 µM and 0.0222 µM		0.012		0.0328 µM and 0.0557 µM	1.52 µM and 2.62 µM	0.0215 µM and 0.0231 µM	12.4 µM	0.0387 µM and 0.0243 µM	12.9 µM	0.00553	2.62 µM and 1.65 µM	0.00684	7.12 µM and 5.24 µM	0.0151 µM and 0.0167 µM	0.0169	0.0532 µM	0.0189 µM and 0.0162 µM	10.1 µM	0.0847 µM and 0.0831 µM
O=C1c2ccn(CCCNC(CO)(CO)CO)c2C(=O)c2c1c(O)c1ccccc1c2O	40 µM	> 86.9 µM	4.09	18.6 µM	49.7 µM	> 100 µM	9.27 µM	56.8 µM	15 µM	36.9 µM	13.1	29.7 µM	24.2	> 100 µM	22.3 µM	24.2	> 61 µM	6.71 µM	21.6 µM	> 69.7 µM
Cc1cc(N(CCC#N)CCC#N)ccc1/C=C(\NC(=O)/C=C/c1ccccc1)C(=O)Nc1ccc(Cl)cc1		> 100 µM		> 100 µM		> 100 µM		> 100 µM		> 100 µM		> 100 µM		> 100 µM			> 100 µM		> 100 µM	> 100 µM
Cc1nn(Cc2ccccc2)cc1C(=O)Nc1sc2c(c1C(N)=O)CCC(=O)C2	1.88 µM	4.47 µM	0.985	5.78 µM	3.03 µM	21.7 µM	2.44 µM	7.96 µM	3.27 µM	> 100 µM	1.78	3.79 µM	3.12	21.8 µM	1.18 µM	2.35	7.1 µM	1.7 µM	3.43 µM	4.09 µM
OC(CN1CCCC2CCCCC21)c1cc2ccccc2c2ccccc12 (centres undefined)	1.24 µM	3.42 µM	1.66	3.36 µM	1.56 µM	3.54 µM	2.59 µM	8.66 µM	3.2 µM	15.3 µM	1.53	2.93 µM	3.64	13.7 µM	1.6 µM	1.71	3.59 µM	2.82 µM	8.54 µM	3.87 µM
N#CC(C(=N/O)/C(=N\O)C(C#N)c1ccccc1)c1ccccc1 (centres undefined)		> 100 µM		> 100 µM		> 100 µM		> 100 µM		> 100 µM		> 100 µM		> 100 µM			> 100 µM		> 100 µM	> 100 µM
O=C1CC(Cc2n[nH]c3c2CCCC3)CC(=O)N1		> 100 µM		> 100 µM		> 100 µM		> 100 µM		> 100 µM		> 100 µM		> 100 µM			> 100 µM		> 100 µM	> 100 µM
CC1=CC(C)(C)Nc2ccc(Cc3ccc4c(c3)C(C)=CC(C)(C)N4)cc21	8.42 µM	65.6 µM	11.5	25.5 µM	5.67 µM	> 100 µM	16.1 µM	> 100 µM	9.59 µM	56.8 µM	15.1	82.2 µM	16.6	> 100 µM	2.02 µM	22	88.7 µM	6.4 µM	21.3 µM	23.5 µM
CC(=O)c1ccc2c3c1[C@H]1O[C@H]1c1cccc(c1-3)[C@@H]1O[C@H]21		3.69 µM		3.01 µM		4.03 µM		0.294 µM		3.49 µM		1.2 µM		3.86 µM			3.82 µM		12.1 µM	8.35 µM
C=C1C(=O)O[C@H]2[C@H]1CC/C(COC(=O)CCCCCCCC(=O)OC/C1=C/CC[C@@]3(C)O[C@H]3[C@H]3OC(=O)C(=C)[C@@H]3CC1)=C\CC[C@@]1(C)O[C@@H]21	2.16 µM	5.07 µM	1.46	3.24 µM	2.55 µM	8.87 µM	2.22 µM	5.92 µM	2.75 µM	8.44 µM	1.48	2.95 µM	2.3	7.41 µM	1.31 µM	1.43	2.88 µM	1.32 µM	2.79 µM	6.46 µM
CC(=O)O[C@@H]1C2=C(C)C3(CC3)[C@@](C)(O)C(=O)C2=C[C@@]1(C)CO	1.87 µM	5.75 µM	0.355	> 100 µM	2.66 µM	7.56 µM	0.598 µM	5.08 µM	0.427 µM	> 100 µM	1.04	4.44 µM	0.357	2.79 µM	0.372 µM	0.24	0.658 µM	0.319 µM	1.16 µM	3.14 µM
COc1cc2c(NC3CCN(C(C)C)CC3)nc(C3CCCCC3)nc2cc1OCCCN1CCCC1	3.48 µM	15.6 µM	2.15	6.45 µM	8.42 µM	21.1 µM	12.5 µM	26.9 µM	3.97 µM	15.6 µM	1.75	3.95 µM	3.37	14.1 µM	2.42 µM	1.8	4.27 µM	6.98 µM	20.4 µM	7.75 µM
Cc1ccc(C)c(NC(=O)C(=O)C2C(=O)N(c3ccccc3)N=C2N)c1 (centres undefined)		> 100 µM		> 100 µM		> 100 µM		> 100 µM		> 100 µM		> 100 µM		> 100 µM			> 100 µM		> 100 µM	> 100 µM
CSc1nnc(-c2cc3c([nH]c4ccccc43)c(-c3cccc(O)c3)n2)n1-c1ccc(C)cc1	1.75 µM	7.59 µM	5.8	> 100 µM	4.51 µM	> 100 µM	3.62 µM	24.6 µM	4.25 µM	45.2 µM	5.05	> 100 µM	3.83	48.1 µM	5.31 µM	2.11	6.51 µM	2.64 µM	9.24 µM	> 100 µM
COc1c(B(O)O)cccc1-c1nc2ccc3[nH]ncc3c2c2c1CCCC2		6.56 µM	1.17	12.1 µM	2.65 µM	15.9 µM	2.25 µM	14.3 µM	2.39 µM	> 38.8 µM	1.38	6.28 µM	1.95	12.5 µM	0.936 µM	0.0225	1.25 µM	3.43 µM	12.3 µM	7.01 µM
Cc1nc2sc(C(=O)Nc3ccccc3)c(N)c2cc1C(O)c1ccccc1 (centres undefined)	3.56 µM	54.5 µM	0.283	> 100 µM	0.597 µM	> 100 µM	0.445 µM	44.4 µM	0.408 µM	> 100 µM	0.382	> 41.1 µM	0.917	> 100 µM	0.417 µM	0.27	1.88 µM	0.263 µM	3.3 µM	11.7 µM
